Measured values reported in the supplement of paper PMC5412046.

System: SB.msgc-1
Experiment: AC50 for growth inhibition (viability) (log10 M); higher = less potent
Settings: SB.msgc-1 (sporadic gastric cancer)
Summary of the method: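 Log half-maximal activity concentration reflects viability of patient-derived gastric cancer cells, hereditary or sporadic, normalised to DMSO and fitted with four parameters, with only high-quality curve classes retained. Wells of a 1536 plate held 500 cells and received compound by pintool at 11 threefold dilutions from a final 46 μM. Luminescence from CellTiter-Glo was read on a ViewLux at 48 h.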

| Compound | AC50 for growth inhibition (log10 M) |
| --- | --- |
| c1ccc(CNc2nc(N3CCOc4ccccc43)nc3c2CCCC3)cc1 | -4.68 |
| c1cc(N[C@@H]2CCNC2)nc(-c2cnc3ccc(-c4cn[nH]c4)cn23)c1 | -4.68 |
| c1ccc(-c2nn3c(c2-c2ccnc4cc(OCCN5CCOCC5)ccc24)CCC3)nc1 | -4.68 |
| C/C(=N\NC(=S)N1CCC1)c1ccccn1 | -5.73 |
| CC(C)c1ccc(Cn2ccc3c4c(N)nc(NC5CC5)nc4ccc32)cc1 | -5.78 |
| CC(C)c1noc(N2CCC(COc3ccc(-c4ccc([S+](C)(=O)[O-])cc4)nc3)CC2)n1 | -5.23 |
| CC(C)C1=N[N](C\2=C1C(=O)N\C(=N2)CC3=CC=C(OCCO)C=C3)C4=C(Cl)C=CC=C4Cl | -6.88 |
| CC(C)CC(=O)Nc1n[nH]c2c1CN(C(=O)C1CCN(C)CC1)C2(C)C | -5.83 |
| Cc1ccc(C(N)=O)cc1Nc1nccc(-c2cn(C(C)C)c3cnccc23)n1 | -5.28 |
| CC/1=C(/C(CC(=O)N1)C2=CC=C(C=C2)C(F)(F)F)C(=O)NC3=C(F)C=C4[NH]N=CC4=C3 (stereo unspecified) | -5.03 |
| CC1(C)Cc2c(sc(NC(=S)NC(=O)c3ccccc3)c2C(=O)O)CO1 | -4.53 |
| Cc1ccccc1C(C(=O)NC1CCCC1)N(C(=O)Cn1cnc2ccccc21)c1cccc(F)c1 (stereo unspecified) | -4.63 |
| CC1=C2N=C([NH]C2=CC(=C1)N3CCOCC3)\C4=C(NC[C@@H](O)C5=CC=CC(=C5)Cl)\C=C/NC4=O | -5.78 |
| Cc1cc2c(cc1C1(c3ccc(C(=O)O)cn3)CC1)C(C)(C)CCC2(C)C | -4.73 |
| Cc1cccc(Nc2nc(-c3ccncc3)cs2)c1 | -4.68 |
| Cc1ccnc(N[S+](=O)([O-])c2ccc(NC(=O)Nc3ccc([S+](=O)([O-])Nc4nccc(C)n4)cc3)cc2)n1 | -4.68 |
| CC1COC2(CCN(CC2)C/3=N/C(=O)C4=CC(=CC(=C4S3)[N+]([O-])=O)C(F)(F)F)O1 (stereo unspecified) | -4.78 |
| CCc1cncnc1N1CCN(Cc2nc3cc(C(F)(F)F)ccc3[nH]2)CC1 | -5.13 |
| CCc1cccc(CC)c1NC(=O)N1Cc2[nH]nc(NC(=O)c3ccc(N4CCN(C)CC4)cc3)c2C1 | -4.63 |
| CCNC(=O)C[C@H]1/N=C(/C2=CC=C(Cl)C=C2)C3=CC(=CC=C3[N]4C(=NN=C14)C)OC | -5.03 |
| CCNC(=O)Nc1ccc(Oc2ncnc(N)c2/C=N/OC)cc1Cl | -4.88 |
| CCOC(=O)C(C)OC1=CC=CC2=C1\C=C/N(CC(=O)NC3=CC=C4OCCOC4=C3)C2=O (stereo unspecified) | -5.18 |
| Cc1cc(NC(=O)Nc2ccc(N(C)C)cc2)c2cc(F)cc(F)c2n1 | -5.08 |
| CN(C)Cc1ccc(-c2nc3cccc4c3n2CCNC4=O)cc1 | -4.78 |
| CN(C)CCN(C)C(=O)c1ccc(NC(=O)Nc2ccc(-c3nc(N4CCOCC4)c4ccn(CC(F)(F)F)c4n3)cc2)cc1 | -5.18 |
| CN(C)CCOc1ccc(-c2nc(-c3ccncc3)c(-c3ccc4c(c3)CC/C4=N\O)[nH]2)cc1 | -4.68 |

| Compound | AC50 for growth inhibition (log10 M) |
| --- | --- |
| Cc1c(-c2cccc3c(CCCOc4cccc5ccccc45)c(C(=O)O)n(Cc4cccnc4)c23)c(COc2ccc(N3CCN([S+](=O)([O-])N(C)C)CC3)cc2)nn1C | -4.63 |
| CN1C(=O)C(=C\C2=C1N=C(NC3=CC=CC(=C3)C(O)=O)N=C2)/C4=C(Cl)C=CC=C4Cl | -5.78 |
| CN1CCN(c2ccc([N+](=O)[O-])c3no[n+]([O-])c23)CC1 | -4.63 |
| CN1CCN(c2cccc(Nc3nc4c(-c5ccc([S+](C)(=O)[O-])cc5)cccn4n3)c2)CC1 | -4.78 |
| CNC(=O)C1=CC=C(C)C(=C1)N2C(=C/C(=C(/Br)C2=O)OCC3=C(F)C=C(F)C=C3)\C | -4.98 |
| CNC(=O)c1ccc2c(c1)NC(=O)/C2=C(\Nc1cccc(CN(C)C)c1)c1ccccc1 | -4.93 |
| CNC(=O)N1\N=C(\C2=CC=C(N)C=C2)C3=CC4=C(OCO4)C=C3CC1C (stereo unspecified) | -5.08 |
| CNc1nc(-c2ccc3c(N)n[nH]c3c2)cc(N2C[C@@H](C(=O)NC3CCCCC3)CC[C@H]2C)n1 | -4.68 |
| COc1cc(N2CCN(C)CC2)ccc1Nc1nc(N)c(C(=O)c2c(Cl)cccc2Cl)s1 | -5.18 |
| COc1cc2c(Nc3ccc(NC(=O)c4ccccc4)cc3)ncnc2cc1OCCCN1CCOCC1 | -4.83 |
| COc1cc(-c2nn(C3CCC(N4CCN(C(C)=O)CC4)CC3)c3ncnc(N)c23)ccc1NC(=O)c1cc2ccccc2n1C (stereo unspecified) | -5.28 |
| COc1cc(Cl)cn2c(-c3cccc(NC4CNC4)n3)cnc12 | -4.68 |
| COc1ccc(CCC(=O)Nc2nc3ccc(Cl)cc3s2)cc1OC | -4.63 |
| COc1ccc(COc2cc3oc(=O)c4cc(C(C)O)ccc4c3cc2OC)cc1 (stereo unspecified) | -4.63 |
| COc1ccc(N(C(=O)Oc2c(C)cccc2C)c2ccnc(Nc3ccc(N4CCN(C)CC4)cc3)n2)c(OC)c1 | -5.43 |
| COc1ccc2c(c1)CC[C@@H](CN(C)CC(=O)O)[C@H]2c1ccccc1 | -5.63 |
| COC1=CC=C2[C@H]3CC[C@]4(C)[C@H](CC[C@H]4[C@@H]3CCC2=C1)NCCCCCCN5C(=O)\C=C/C5=O | -4.73 |
| COC1=CC=CC(=C1N)\C2=C\C(=O)C3=C(O2)C=CC=C3 | -4.68 |
| COCC(=O)NC/C=C/c1ccc2ncnc(Nc3ccc(Oc4ccc(C)nc4)c(C)c3)c2c1 | -6.58 |
| COCCOc1ccc2c(c1)ncn2-c1ccc2cccc(N3CCC(N)CC3)c2n1 | -5.23 |
| C[C@H](c1ccc(F)cc1CCCC(=O)O)N(c1cc(F)ccc1F)[S+](=O)([O-])c1ccc(Cl)cc1 | -4.78 |
| C[C@@H](N)c1ccc(C(=O)Nc2ccnc3[nH]ccc23)cc1 | -4.78 |
| C[C@@H](Oc1cc(-n2cnc3ccc(CN4CCN(C)CC4)cc32)sc1C(N)=O)c1ccccc1C(F)(F)F | -7.13 |
| C[C@H](NCc1ccc2c(c1)nc(NC(=O)c1ccc(-c3cn[nH]c3)s1)n2CCc1ccccc1)C(C)(C)C | -6.03 |
| C[C@@]1(C(=O)Nc2ccc(F)nc2)CCCN1c1nc(Nc2cc(C3CC3)[nH]n2)c2cccn2n1 | -4.73 |
| C[N]1C=C(C=N1)C2=CC=C3N=CC\4=C(N(C(=O)\C=C4)C5=CC6=C(CCN6C(=O)C=C)C=C5)C3=C2 | -4.98 |

| Compound | AC50 for growth inhibition (log10 M) |
| --- | --- |
| Cn1ccc2cc3c(cc21)CCN3C(=O)Nc1cccnc1 | -5.03 |
| C[S+](=O)([O-])c1cccc(CNc2nc(Nc3ccc4c(c3)CCC(=O)N4)ncc2C(F)(F)F)c1 | -4.78 |
| C[S+]([O-])c1ccc(-c2nc(-c3ccc(F)cc3)c(-c3ccncc3)[nH]2)cc1 (stereo unspecified) | -4.62 |
| O=C(NCc1ccncc1)C12C[C@H]3C[C@@H](C1)CC(c1ccc(Cl)cc1)(C3)C2 | -4.98 |
| ClC1=C[NH]N=C1C\2NC(=N\C3=C2C(=O)CCC3)/NC4=NC5=CC=CC=C5O4 (stereo unspecified) | -4.78 |
| O=C(N[C@@H](c1ccccc1)[C@@H]1CCCCN1)c1cccc(C(F)(F)F)c1Cl | -5.88 |
| O=C(Nc1ccccc1Br)N[C@@H]1CCN(c2ccc(C(F)(F)F)cn2)C1 | -4.73 |
| O=C1NC(=O)/C(=C\c2ccc(-c3ccc(F)cc3)o2)S1 | -4.78 |
| NC(=O)c1noc([C@H](CCCC2CCCCC2)CC(=O)NO)n1 | -4.93 |
| Nc1nc(NCCNc2ncc(-n3ccnc3)c(-c3ccc(Cl)cc3Cl)n2)ccc1[N+](=O)[O-] | -5.68 |
| Nc1nc(Nc2ccc([S+](N)(=O)[O-])cc2)nn1C(=O)c1c(F)cccc1F | -5.33 |
| Nc1nc(N)c2nc(-c3cccc(O)c3)c(-c3cccc(O)c3)nc2n1 | -5.18 |
| O=C(C1CC1)N1CC[C@@H](Cn2c(-c3ccc(-c4ccc5occc5c4)cc3)nc3cnccc32)C1 | -4.73 |
| O=C1NCCc2[nH]c(-c3ccncc3)cc21 | -5.63 |
| O=C(O)c1ccc(-c2c[nH]c3ncc(-c4ccccc4)cc23)cc1C1CCCC1 | -6.28 |
| O=C(O)c1ccc(O)c2ncc(N3CCOCC3)cc12 | -4.78 |
| O=C(Nc1ccccc1)Nc1ccc(-c2ccc(C(=O)[C@@H]3CCC[C@H]3C(=O)O)cc2)cc1 | -4.63 |
| OC1=C(Cl)C=C(N\C2=C(\C(=O)NC2=O)C3=C(C=CC=C3)[N+]([O-])=O)C=C1 | -4.88 |
| Oc1ccc(C2CCN(c3ccnc4ccccc34)CC2)cc1O | -4.63 |
| O=[S+]([O-])(/N=C/c1c(O)ccc2ccccc12)c1cccs1 | -5.03 |
| O=C(NOCC(O)CO)c1cc(Br)c(F)c(F)c1Nc1ccc(I)cc1F (stereo unspecified) | -5.88 |
| OCCC#Cc1nc(-c2ccc(F)cc2)c(-c2ccncc2)n1CCCc1ccccc1 | -4.68 |
| OCCCNc1cc(-c2ccnc(Nc3cccc(Cl)c3)n2)ccn1 | -6.68 |
| O=[N+]([O-])c1ccc(Nc2ccccc2-c2ccccc2)c2nonc12 | -4.53 |
